Where two headings read alike, the source gives them in different places. Marks after values point to notes of the source that are not given here.
Columns and labels:
[1] = target: human RORγt ligand binding domain (RORγt LBD) (Homo sapiens (Human), UniProt P51449); assay: RORγt ThermoFluor assay
Outline: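 Thermal shift of His-tagged human RORγt LBD (0.065 mg/mL) with 60 μM 1,8-ANS in 100 mM Hepes pH 7.0, 10 mM NaCl, 2.5 mM GSH, 0.002% Tween-20, heated at 1° C./min. Compounds in 1:2 series from a 10 mM DMSO stock; KD estimated from ΔTm using protein unfolding thermodynamics.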

[2] = target: full-length human RORγt (Homo sapiens (Human), UniProt P51449); assay: RORγt (full-length human) reporter assay, conditions A or B; assay type: cell-based; settings: for IC50: HEK293T cells, read-out: RORγt (FL) Reporter Assay A or B, IC50; for inhibition at 6 µM: read-out: RORγt (FL) Reporter Assay A or B, % inhibition @ 6 μM, 6 μM compound concentration
Chain of full-length human RORγt (P51449 other isoform, or with tags, fused parts or gaps): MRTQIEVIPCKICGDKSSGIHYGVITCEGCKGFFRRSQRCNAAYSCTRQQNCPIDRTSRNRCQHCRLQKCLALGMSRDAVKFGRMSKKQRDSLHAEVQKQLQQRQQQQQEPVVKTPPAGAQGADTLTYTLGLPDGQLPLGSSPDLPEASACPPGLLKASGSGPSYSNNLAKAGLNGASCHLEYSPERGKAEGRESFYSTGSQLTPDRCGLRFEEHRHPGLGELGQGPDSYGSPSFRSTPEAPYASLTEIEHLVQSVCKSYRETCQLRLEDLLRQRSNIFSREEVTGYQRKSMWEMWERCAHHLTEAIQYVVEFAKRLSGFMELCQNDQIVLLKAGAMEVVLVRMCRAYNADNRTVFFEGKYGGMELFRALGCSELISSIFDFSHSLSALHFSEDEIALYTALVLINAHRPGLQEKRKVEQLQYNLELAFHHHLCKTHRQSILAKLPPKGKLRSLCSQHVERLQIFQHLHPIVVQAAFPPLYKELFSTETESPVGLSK
Outline: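 HEK293T cells transiently co-transfected (PEI) with GAL4-DBD–RORγt, GAL4-firefly luciferase and CMV-Renilla reporters; condition A 35,000 cells/well, 170.5 ng DNA/well; condition B 8750 cells/well, 42.6 ng DNA/well.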

[3] = 3 μM compound concentration (*), read-out: RORγt (FL) Reporter Assay A or B, % inhibition
[4] = 0.67 μM compound concentration (****), read-out: RORγt (FL) Reporter Assay A or B, % inhibition

Chain of human RORγt ligand binding domain (RORγt LBD) (P51449 other isoform, or with tags, fused parts or gaps): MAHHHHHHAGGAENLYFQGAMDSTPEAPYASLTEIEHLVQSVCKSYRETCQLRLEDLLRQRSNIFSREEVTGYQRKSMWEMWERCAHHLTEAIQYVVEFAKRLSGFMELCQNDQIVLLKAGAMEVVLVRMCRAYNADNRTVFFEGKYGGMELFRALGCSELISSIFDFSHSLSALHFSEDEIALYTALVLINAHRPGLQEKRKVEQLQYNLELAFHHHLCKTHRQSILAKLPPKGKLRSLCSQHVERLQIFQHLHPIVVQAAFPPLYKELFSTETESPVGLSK

| Structure (SMILES) | Kd [1] [nM] | IC50 [2] [nM] | inhibition at 3 µM [2, 3] [%] | inhibition at 0.67 µM [2, 4] [%] | inhibition at 6 µM [2] [%] | inhibition at 0.67 µM ([2]; read-out: RORγt (FL) Reporter Assay A or B, % inhibition, 0.67 μM compound concentration (****)) [%] | RORγt (FL) Reporter Assay A or B, % inhibition ([2]; 3 μM compound concentration (*)) | inhibition at 2 µM ([2]; read-out: RORγt (FL) Reporter Assay A or B, % inhibition, 2 μM compound concentration (**)) [%] |
| --- | --- | --- | --- | --- | --- | --- | --- | --- |
| CCc1nc(C(=O)NC[C@H]2CC[C@H](S(C)(=O)=O)CC2)c(Cl)n1-c1c(F)cc(C[C@H](C)C(F)(F)F)cc1F (single isomer, unassigned) [Example 86, 5-Chloro-1-(2,6-difluoro-4-((S*)-3,3,3-trifluoro-2-methylpropyl)phenyl)-2-ethyl-N-(((1r,4S)-4-(methylsulfonyl)cyclohexyl)methyl)-1H-imidazole-4-carboxamide] | 5.3 | 23 |  |  |  | 68 |  |  |
| Cc1nc(C(=O)NC[C@@H]2CC[C@@H](S(C)(=O)=O)C[C@H]2O)c(C#N)n1-c1ccc(CC(C)(C)C(F)(F)F)cc1OC(F)F (racemic) [Example 55, 5-Cyano-1-(2-(difluoromethoxy)-4-(3,3,3-trifluoro-2,2-dimethylpropyl)phenyl)-N-(((1RS,2SR,4SR)-2-hydroxy-4-(methylsulfonyl)cyclohexyl)methyl)-2-methyl-1H-imidazole-4-carboxamide] | 20 | 66 | 93 |  |  |  |  |  |
| CCc1nc(C(=O)NC[C@]2(O)CC[C@@H](S(C)(=O)=O)CC2)c(C)n1-c1ccc(CC(C)(C)C(F)(F)F)c(OC)c1 [Example 45, 2-Ethyl-N-(((1s,4s)-1-hydroxy-4-(methylsulfonyl)cyclohexyl)methyl)-1-(3-methoxy-4-(3,3,3-trifluoro-2,2-dimethylpropyl)phenyl)-5-methyl-1H-imidazole-4-carboxamide] | 7.7 | 11 |  | 77 |  |  |  |  |
| CCc1nc(C(=O)NC[C@H]2CC[C@H](S(=O)(=O)NC)CC2)c(Cl)n1-c1ncc(CC(C)(C)C(F)(F)F)cc1OC(F)F [Example 68, 5-Chloro-1-(3-(difluoromethoxy)-5-(3,3,3-trifluoro-2,2-dimethylpropyl)pyridin-2-yl)-2-ethyl-N-(((1r,4r)-4-(N-methylsulfamoyl)cyclohexyl)methyl)-1H-imidazole-4-carboxamide] | 3.7 | 50 |  |  |  |  | 103* % |  |
| CCc1nc(C(=O)NC[C@]2(O)CC[C@@H](S(C)(=O)=O)CC2)c(Cl)n1-c1ccc(CC(C)C)cc1OC (single isomer, unassigned) [Example 91, 5-Chloro-2-ethyl-N-(((1s,4S)-1-hydroxy-4-(methylsulfonyl)cyclohexyl)methyl)-1-((S*)-4-isobutyl-2-methoxyphenyl)-1H-imidazole-4-carboxamide] | 620 | 360 |  |  |  |  |  | 42 |
| [2H]C([2H])([2H])Oc1cc(CCC(F)(F)F)ccc1-n1c(CC)nc(C(=O)NC[C@]2(O)CC[C@@H](S(C)(=O)=O)CC2)c1C#N [Example 30, 5-Cyano-2-ethyl-N-(((1s,4s)-1-hydroxy-4-(methylsulfonyl)cyclohexyl)methyl)-1-(2-(methoxy-d3)-4-(3,3,3-trifluoropropyl)phenyl)-1H-imidazole-4-carboxamide] | 44 | 320 |  |  | 96 |  |  |  |

The next lines start with results.

| Kd [1] [nM] | IC50 [2] [nM] | inhibition at 3 µM [2, 3] [%] | inhibition at 0.67 µM [2, 4] [%] | inhibition at 6 µM [2] [%] | Structure (SMILES) | inhibition at 0.67 µM ([2]; read-out: RORγt (FL) Reporter Assay A or B, % inhibition, 0.67 μM compound concentration (****)) [%] | RORγt (FL) Reporter Assay A or B, % inhibition ([2]; 3 μM compound concentration (*)) | inhibition at 2 µM ([2]; read-out: RORγt (FL) Reporter Assay A or B, % inhibition, 2 μM compound concentration (**)) [%] |
| --- | --- | --- | --- | --- | --- | --- | --- | --- |
| 35 | 210 | 101 |  |  | CCc1nc(C(=O)NC[C@H]2CC[C@H](S(C)(=O)=O)C[C@@H]2O)c(Cl)n1-c1ncc(CC(C(F)(F)F)C(F)(F)F)cc1OC(F)F (stereo in doubt) [Example 64, 5-Chloro-1-(3-(difluoromethoxy)-5-(3,3,3-trifluoro-2-(trifluoromethyl)propyl)pyridin-2-yl)-2-ethyl-N-(((1R*,2S*,4S*)-2-hydroxy-4-(methylsulfonyl)cyclohexyl)methyl)-H-imidazole-4-carboxamide] |  |  |  |
| 17 | 46 |  | 67 |  | CCc1nc(C(=O)NC[C@]2(O)CC[C@@H](S(C)(=O)=O)CC2)c(Cl)n1-c1c(F)cc(CC(C)C(F)(F)F)cc1F (stereo partly drawn) [Example 88, 5-Chloro-1-(2,6-difluoro-4-(3,3,3-trifluoro-2-methylpropyl)phenyl)-2-ethyl-N-(((1s,4s)-1-hydroxy-4-(methylsulfonyl)cyclohexyl)methyl)-1H-imidazole-4-carboxamide] |  |  |  |
| 340 | 800 | 87 |  |  | Cc1nc(C(=O)NC[C@]2(O)CC[C@@H](S(C)(=O)=O)CC2)cn1-c1ccc(CC(C)(C)C(F)(F)F)cc1OC(F)F [Example 132, 1-(2-(Difluoromethoxy)-4-(3,3,3-trifluoro-2,2-dimethylpropyl)phenyl)-N-(((1s,4s)-1-hydroxy-4-(methylsulfonyl)cyclohexyl)methyl)-2-methyl-1H-imidazole-4-carboxamide] |  |  |  |
| 560 | 1500 |  |  | 88 | CCc1nc(C(=O)NC[C@H]2CC[C@H](S(C)(=O)=O)CC2)c(C#N)n1-c1cnc(CCC(F)(F)F)cc1OC [Example 117, 5-Cyano-2-ethyl-1-(4-methoxy-6-(3,3,3-trifluoropropyl)pyridin-3-yl)-N-(((1r,4r)-4-(methylsulfonyl)cyclohexyl)methyl)-1H-imidazole-4-carboxamide] |  |  |  |
| 3.1 | 28 |  |  | 97 | CCc1nc(C(=O)NC[C@]2(O)CC[C@@H](S(C)(=O)=O)CC2)c(Cl)n1-c1ncc(CC(C)(C)C(F)(F)F)cc1OC(F)F [Example 46, 5-Chloro-1-(3-(difluoromethoxy)-5-(3,3,3-trifluoro-2,2-dimethylpropyl)pyridin-2-yl)-2-ethyl-N-(((1s,4s)-1-hydroxy-4-(methylsulfonyl)cyclohexyl)methyl)-1H-imidazole-4-carboxamide] |  |  |  |
| 37 | 310 |  |  | 105 | CCc1nc(C(=O)NC[C@]2(C#N)CC[C@@H](S(C)(=O)=O)CC2)c(C)n1-c1ncc(CC(C)(C)C(F)(F)F)cc1OC [Example 128, N-(((1s*,4s*)-1-Cyano-4-(methylsulfonyl)cyclohexyl)methyl)-2-ethyl-1-(3-methoxy-5-(3,3,3-trifluoro-2,2-dimethylpropyl)pyridin-2-yl)-5-methyl-1H-imidazole-4-carboxamide] |  |  |  |
| 9.8 | 75 | 98 |  |  | CCc1nc(C(=O)NC[C@H]2CC[C@H](S(C)(=O)=O)CC2)c(Cl)n1-c1ncc(C[C@H](C)C(F)(F)F)cc1OC(F)F (single isomer, unassigned) [Example 72, 5-Chloro-1-(3-(difluoromethoxy)-5-((S*)-3,3,3-trifluoro-2-methylpropyl)pyridin-2-yl)-2-ethyl-N-(((1r,4S)-4-(methylsulfonyl)cyclohexyl)methyl)-1H-imidazole-4-carboxamide] |  |  |  |
| 73 | 790 | 70 |  |  | CCc1nc(C(=O)NC[C@@]2(O)CC[C@H](S(C)(=O)=O)C[C@@H]2O)c(Cl)n1-c1ncc(CC(C(F)(F)F)C(F)(F)F)cc1OC(F)F (stereo in doubt) [Example 66, 5-Chloro-1-(3-(difluoromethoxy)-5-(3,3,3-trifluoro-2-(trifluoromethyl)propyl)pyridin-2-yl)-N-(((1S*,2S*,4S*)-1,2-dihydroxy-4-(methylsulfonyl)cyclohexyl)methyl)-2-ethyl-1H-imidazole-4-carboxamide] |  |  |  |

Source: US11345666B2, “Phenyl and pyridinyl substituted imidazoles as modulators of RORγT” (Janssen Pharmaceutica NV, priority 2018, dated 2022)
